{"source": "patent US20080280759A1", "about": "“6-(2-Fluoro-4-Alkoxyphenyl) Triazolopyrimidines, Their Preparation, Their Use For Controlling Harmful Fungi, and Compositions Comprising Them” (priority 2003, published 2008)", "data": [{"test_system": "Botrytis cinerea", "test": "Activity against gray mold on bell pepper leaves caused by Botrytis cinerea, protective application", "assay_type": "in vivo", "details": "250 ppm, sprayed the day before inoculation, assessed visually after 5 days, untreated plants 80% infected", "protocol": "The active compounds were formulated separately as a stock solution with 0.25% by weight in acetone or DMSO. 1% by weight of the emulsifier Wettol EM 31 (wetting agent having emulsifying and dispersing action based on ethoxylated alkylphenols) was added to this solution. The stock solutions of the active compounds were diluted with water to the stated concentration. For examples 1 and 2, the active compounds were prepared as a stock solution with 25 mg of active compound which was made up to 10 ml using a mixture of acetone and/or DMSO and the emulsifier Uniperol® EL (wetting agent having emulsifying and dispersing action based on the ethoxylated alkylphenols) in a volume ratio of solvent/emulsifier of 99 to 1. The mixture was then made up with water to 100 ml. This stock solution was diluted with the solvent/emulsifier/water mixture described to the concentration of active compounds stated below. Bell pepper seedlings of the cultivar “Neusiedler Ideal Elite” were, after 2 to 3 leaves were well developed, sprayed to runoff point with an aqueous suspension having the concentration of active compounds stated below. The next day, the treated plants were inoculated with a spore suspension of Botrytis cinerea which contained 1.7×10^6 spores/ml in a 2% aqueous biomalt solution. The test plants were then placed in a dark climatized chamber at 22 to 24° C. and high atmospheric humidity. After 5 days, the extent of the fungal infection on the leaves could be determined visually in %.", "values": [{"compound": "5-methoxy-6-(2,6-difluoro-4-methoxyphenyl)-7-(4-methyl-piperidinyl)-1,2,4-triazolo[1,5a]pyrimidine [Compound I-3]", "fungal infection on the leaves": "no infection"}, {"compound": "COc1cc(F)c(-c2c(C#N)nc3ncnn3c2N2CCC(C)CC2)c(F)c1", "note": "[Compound I-1, 5-cyano-6-(2,6-difluoro-4-methoxyphenyl)-7-(4-methyl-piperidinyl)-1,2,4-triazolo[1,5a]pyrimidine]", "fungal infection on the leaves": "no infection"}, {"compound": "COc1cc(F)c(-c2c(C)nc3ncnn3c2N2CCC(C)CC2)c(F)c1", "note": "[Compound I-2, 5-methyl-6-(2,6-difluoro-4-methoxyphenyl)-7-(4-methyl-piperidinyl)-1,2,4-triazolo[1,5a]pyrimidine]", "fungal infection on the leaves": "no infection"}]}]}
